Here are results for 25 compounds from ChEMBL document CHEMBL1157785, “Identification of 4,5-dihydro-1H-pyrazolo[4,3-h]quinazoline derivatives as a new class of orally and selective Polo-like kinase 1 inhibitors” (J Med Chem, 2010).

In brackets after ≈: the same amount, converted by molar mass.

One data set in a line: Solubility at pH 7 after 24 hrs by LC-MS/MS analysis. Conditions: buffer. The class given is physicochemical.
One may read the solubility as the concentration that dissolves in the medium under given conditions. The low end stands for little dissolved substance, the high end for much dissolved substance. Regarding `COc1ccccc1Nc1ncc2c(n1)-c1c(c(C(N)=O)nn1C)CC2`, the solubility at 24 h worked out at 3 µM (≈ 1.05 µg/mL).
On the same count and under the same terms, the figure for `Cc1ccccc1Nc1ncc2c(n1)-c1c(c(C(N)=O)nn1C)CC2` is 3 µM (≈ 1 µg/mL).
The same measure, in the same setting: the same measure for `CSc1ccccc1Nc1ncc2c(n1)-c1c(c(C(N)=O)nn1C)CC2`: 2 µM (≈ 0.733 µg/mL); for `COC(=O)c1ccccc1Nc1ncc2c(n1)-c1c(c(C(N)=O)nn1C)CC2`: 2 µM (≈ 0.757 µg/mL).
Take `Cn1nc(C(N)=O)c2c1-c1nc(Nc3ccccc3Cc3ccccc3)ncc1CC2`: the solubility at 24 h was < 1 µM.
Same read-out and setting: the same measure for `Cn1nc(C(N)=O)c2c1-c1nc(Nc3ccccc3C(N)=O)ncc1CC2`: < 1 µM.
On the same count and under the same terms, the same measure for `Cn1nc(C(N)=O)c2c1-c1nc(Nc3ccccc3S(N)(=O)=O)ncc1CC2`: 4 µM (≈ 1.6 µg/mL); for `Cn1nc(C(N)=O)c2c1-c1nc(Nc3ccccc3-c3ccccc3)ncc1CC2`: < 1 µM.
For `Cn1nc(C(N)=O)c2c1-c1nc(Nc3ccccc3Nc3ccccc3)ncc1CC2`, the solubility at 24 h was < 1 µM.
The same measure, in the same setting: the same measure for `Cn1nc(C(N)=O)c2c1-c1nc(Nc3ccccc3C(=O)c3ccccc3)ncc1CC2`: < 1 µM; for `Cn1nc(C(N)=O)c2c1-c1nc(Nc3ccccc3Sc3ccccc3)ncc1CC2`: < 1 µM.
For the compound `CNc1ccccc1Nc1ncc2c(n1)-c1c(c(C(N)=O)nn1C)CC2`, the solubility at 24 h worked out at 23 µM (≈ 8.04 µg/mL).
The same measure, in the same setting: the figure for `CC(=O)c1ccc(N2CCN(C)CC2)cc1Nc1ncc2c(n1)-c1c(c(C(N)=O)nn1C)CC2` is 18 µM (≈ 8.29 µg/mL).
Still for that read-out and setting: the figure for `COc1cc(N2CCN(C)CC2)ccc1Nc1ncc2c(n1)-c1c(c(C(N)=O)nn1C)CC2` is > 225 µM.
Same read-out and setting: the same measure for `Cn1nc(C(N)=O)c2c1-c1nc(Nc3ccccc3F)ncc1CC2`: 3 µM (≈ 1.02 µg/mL).
The compound `CC(C)c1ccccc1Nc1ncc2c(n1)-c1c(c(C(N)=O)nn1C)CC2` gave a solubility at 24 h of 2 µM (≈ 0.725 µg/mL).
For `CC(=O)c1cc(N2CCN(C)CC2)ccc1Nc1ncc2c(n1)-c1c(c(C(N)=O)nn1C)CC2`, the solubility at 24 h worked out at 83 µM (≈ 38.2 µg/mL).
Still for that read-out and setting: the figure for `Cn1nc(C(N)=O)c2c1-c1nc(Nc3ccccc3Oc3ccccc3)ncc1CC2` is < 1 µM.
The same measure, in the same setting: the same measure for `Cn1nc(C(N)=O)c2c1-c1nc(Nc3ccccc3N)ncc1CC2`: 190 µM (≈ 63.7 µg/mL).
The same measure, in the same setting: the figure for `Cn1nc(C(N)=O)c2c1-c1nc(Nc3ccccc3C(F)(F)F)ncc1CC2` is 4 µM (≈ 1.55 µg/mL).
With `CC(=O)Nc1ccccc1Nc1ncc2c(n1)-c1c(c(C(N)=O)nn1C)CC2`, the solubility at 24 h was 16 µM (≈ 6.04 µg/mL).
For `CC(=O)c1c(Nc2ncc3c(n2)-c2c(c(C(N)=O)nn2C)CC3)cccc1N1CCN(C)CC1`, the solubility at 24 h came to 170 µM (≈ 78.3 µg/mL).
Same read-out and setting: the figure for `CC(=O)c1ccccc1Nc1ncc2c(n1)-c1c(c(C(N)=O)nn1C)CC2` is 2 µM (≈ 0.725 µg/mL).
Same read-out and setting: the same measure for `Cn1nc(C(N)=O)c2c1-c1nc(Nc3ccccc3)ncc1CC2`: 3 µM (≈ 0.961 µg/mL).

The nature of the next data set: Apparent permeability across human Caco-2 cell membrane at 10 uM after 120 mins by LC-MS/MS analysis. The class given is ADME, cell-based.
Settings: not given
For orientation: Caco-2 cells form a polarised layer with tight junctions and transporters.
The Papp is the rate of passage across a membrane or cell layer, normalised by area and donor concentration. Regarding `Cn1nc(C(=O)O)c2c1-c1nc(Nc3ccccc3)ncc1CC2`, the apparent permeability (Papp) at 2 h, 10 µM came to 2.7 ×10⁻⁶ cm/s.
Regarding `Cn1nc(C(N)=O)c2c1-c1nc(Nc3ccccc3)ncc1CC2`, the apparent permeability (Papp) at 2 h, 10 µM was determined as 58.3 ×10⁻⁶ cm/s.
